# Patent US9604974B2, “Compounds as modulator of JAK-STAT pathway, methods and applications thereof” (UNIVERSITY OF MYSORE, priority 2015, dated 2017)
# Legend:
# [1] = test system: STAT3; test: IL-6 induced STAT3 phosphorylation in Hep3B; assay type: cell-based; conditions: 10 μMol/L CIMO, IL-6 10 ng/mL
# Experimental: FIG. 3 depicts comparative study of cell viability between STAT3-siRNA transfected and Compound 1 (CIMO) treated HepG2 cells [A]. Correspondingly, Western Blot analysis is used to assess the levels of phospho-STAT3 and STAT3 in HepG2 cells with siRNA-mediated depletion STAT3 expression and on exposure to 4 μM CIMO. Whole cell extract is prepared and resolved on SDS-PAGE gel, electrotransferred onto nitrocellulose membrane, and probed for phospho-STAT3 and the same blot is stripped and reprobed with STAT3 antibody and Beta actin to verify equal protein loading. [B] showcases the modulation of STAT3 mediated transcription, α2-M promoter activity by Compound 1 (CIMO) in HepG2 cells. [C] depicts the inhibition of IL-6-induced phosphorylation of STAT3, JAK1 and JAK2 by Compound 1 (CIMO). Hep3B cells (5×10^5/mL) are treated with 10 μMol/L CIMO for the indicated times and then stimulated with IL-6 (10 ng/mL) for about 15 minutes. Whole-cell extracts are then prepared, resolved on SDS-PAGE gel, electrotransferred onto nitrocellulose membrane and probed with phospho-STAT3, phospho-JAK1 and phospho-JAK2 antibodies. The same blot is stripped and reprobed with STAT3, JAK1 and JAK2 antibody to verify equal protein loading. [D] and [E], showcases the suppression of STAT3 regulated gene products involved in cell proliferation and survival by Compound 1 (CIMO). […]
# [2] = test system: phospho-STAT3 (Ser-727); test: Western blot of phospho-STAT3 (Ser-727) in HepG2; assay type: cell-based, human; conditions: HepG2, 10 μMol/L CIMO
# Experimental: FIG. 2 depicts the suppression of phospho-STAT3 by compound 1 (CIMO) in a dose dependent manner [A]. HepG2 cells (5×10^5/mL) are treated with the indicated concentrations of CIMO for 6 hours, after which whole-cell extracts are prepared and resolved on SDS-PAGE gel, electrotransferred onto nitrocellulose membrane, and probed for phospho-STAT3. The same blot is stripped and reprobed with STAT3 antibody to verify equal protein loading. […] HepG2 cells (5×10^5/mL) are treated with the indicated concentrations of AG490 for about 6 hours, after which Western Blotting is done as described for [A]. [C] depicts the suppression of phospho-STAT3 levels by Compound 1 (CIMO) in a time-dependent manner. HepG2 cells (5×10^5/mL) are treated with 10 μMol/L CIMO for the indicated times, after which Western blotting is done as described for [A]. [D] depicts that compound 1 (CIMO) has no effect on phospho-STAT3 (Ser-727) and STAT3 protein expression. […] HepG2 cells (1×10^5/mL) are incubated with or without 10 μMol/L CIMO for about 6 hours and then analyzed for the intracellular distribution of STAT3 by immunocytochemistry. The same slides are counterstained for nuclei with Hoechst (50 ng/mL) for about 5 minutes and analyzed under an fluorescencemicroscope. […]
# [3] = test system: caspase-3 and PARP; test: Western blot of procaspase-3 and PARP cleavage; assay type: cell-based, human; conditions: HepG2, 10 μMol/L CIMO, time dependent
# Experimental: FIG. 4 depicts activation of caspase-3 and induction of apoptosis by Compound 1 (CIMO) [A]. HepG2 cells (5×10^5/mL) are treated with 10 μMol/L CIMO for the indicated times, whole-cell extracts are prepared, separated on SDS-PAGE, and subjected to Western Blotting against caspase-3 and PARP antibody. The same blot is stripped and reprobed with Beta actin antibody to show equal protein loading. [B] Tyrosine phosphatase inhibitor-sodium pervanadate reverses the inhibitory effect of Compound 1 (CIMO) on phospho-STAT3. HepG2 cells (5×10^5/mL) are treated with the indicated concentrations of sodium pervanadate and 10 μMol/L CIMO for about 4 hours, after which whole-cell extracts are prepared, resolved on SDS-PAGE gel, electrotransferred onto nitrocellulose membrane, and probed for phospho-STAT3 and STAT3. [C] illustrates the inhibitory activity of Compound 1 (CIMO) on phospho-STAT3 mediated by protein tyrosine phosphatase. […]
# To detect STAT3-regulated proteins and PARP, cells (2×10^6/ml) are treated with CIMO for the indicated times as shown in respective FIGS. 3E, 3D and 4A. […] Whole-cell extract protein (30 μg) is resolved on SDS-PAGE, electrotransferred onto a nitrocellulose membrane, blotted with antibodies against survivin, Bcl-2, Bcl-xL, cyclin D1, Bak, Bid, ICAM-1, procaspase-3, and PARP and then detected by chemiluminescence (ECL; GE Healthcare, Little Chalfont, Buckinghamshire, UK).
structure (smiles),measurement,setting,value
COc1ccc(C2CNC(c3cn(Cc4ccc(-c5ccccc5C#N)cc4)c4ccccc34)OC23CCCCC3)cc1 (stereo not shown) [Compound 1],IL-6 induced phosphorylation of STAT3,[1],substantially down-regulates
same,phosphorylation of S727 of STAT3,[2],no effect
same,full length PARP / cleaved 85-kDa fragment,[3],decline of full length PARP with increase in cleaved 85-kDa fragment
same,procaspase-3 activation,[3],activation of procaspase-3
